Experimental data published in patent US20230331655A1, “HYDROXYN[…] AND METHODS OF USE THEREOF” (UNIVERSITY OF MARYLAND, BALTIMORE, priority 2020, published 2023).
Read-outs that look alike come from different tables or passages of the source.

Key:
mice = details: i.p.; earlier study; cited from earlier work
[1] = pharmacokinetics in plasma and brain after intraperitoneal administration (UPLC-MS/MS); type: in vivo, mouse; design: key to Brain Concentration over time, sex-dependent difference / Plasma Concentration over time, sex-dependent difference: F, female; M, male; NS, not statistically different; details: for Kp / half-life / Tmax: CD-1, mouse, ip; for Kp: brain and plasma; for half-life: terminal half-life; for Brain Concentration over time, sex-dependent difference / Plasma Concentration over time, sex-dependent difference / Brain Total exposure (AUC), sex-dependent difference / Plasma Total exposure (AUC), sex-dependent difference: female vs male mice; for Brain Concentration over time, sex-dependent difference / Plasma Concentration over time, sex-dependent difference: ANOVA, Holm-Šídák post-hoc; for Brain Total exposure (AUC), sex-dependent difference / Plasma Total exposure (AUC), sex-dependent difference: t-test; for Tmax: earliest sampling time 10 min
Procedure: Male and female CD-1 mice (Charles Rivers Laboratories, Raleigh, NC, USA), 8-11 weeks old at the time of testing, were habituated to the University of Maryland (Baltimore, MD, USA) animal facility for at least one week prior to testing. Mice were group housed 4-5 per cage with a constant 12-hour light cycle (lights on/off at 07:00/19:00). Food and water were available ad libitum. All experiments were performed during the light phase. All animal studies were approved by the University of Maryland School of Medicine Institutional Animal Care and Use Committee and conducted in accordance with the National Institutes of Health Guide for the Care and Use of Laboratory Animals.
(2R,6R)-HNK hydrochloride, (2S,6S)-HNK hydrochloride, (2R,6S)-HNK, (2S,6R)-HNK, (2R,5R)-HNK, (2S,5S)-HNK, (2R,5S)-HNK, (2S,5R)-HNK, (2R,4R)-HNK, (2S,4S)-HNK, (2R,4S)-HNK, and (2S,4R)-HNK hydrochloride were synthesized at the National Center for Advancing Translation Sciences (National Institutes of Health, Rockville, MD, USA) using methods previously described in Morris et al., Org Lett 17:4572-4575 (2017), which is incorporated by reference herein in its entirety. (5R)-methyl-(2R,6R)-HNK was obtained from Organix Inc. (Woburn, MA, USA) or from the National Center for Advancing Translational Sciences (Rockville, MD, USA); synthesis and characterization are described in the Supplemental Information. All compounds were dissolved in 20% (w/v) cyclodextrin (Sigma Aldrich, USA) in saline and administered intraperitoneally (i.p.) in a volume of 7.5 ml/kg.
At 10 min (0.167 h), 30 min (0.5 h), 1 h, 2 h, and 4 h post-treatment, mice were deeply anesthetized (3.5% isoflurane for approximately 2 min). Trunk blood was collected into 1.5-ml polypropylene tubes containing 30 μl of disodium EDTA (0.5 M, pH 8.0) and kept on ice until plasma collection (<30 min). Brains were then removed, flash-frozen in isopentane, and stored at −80° C. until analysis. Blood was centrifuged at 8000×g for 6 min at 4° C. to obtain plasma. Plasma was collected into clean microcentrifuge tubes and stored at −80° C. until analysis.
Ultra-performance liquid chromatography-tandem mass spectrometry (UPLC-MS/MS) methods were developed and optimized to determine the concentration of each HNK in mouse plasma and brain samples following systemic administration. Mass spectrometric analysis was performed on a Waters Xevo TQ-S triple quadrupole instrument using electrospray ionization in positive mode with the selected reaction monitoring. The separation of HNKs from endogenous components was performed on a Waters Acquity UPLC with 0.5 ml/min flow rate and gradient elution. The mobile phase A and B were 0.1% formic acid in water and 0.1% formic acid in acetonitrile, respectively. Plasma and brain concentrations of (2R,6R)-, (2S,6S)-, (2R,4S)-, and (2S,4R)-HNK were determined by hydrophilic interaction liquid chromatography-tandem mass spectrometry (HILIC UPLC-MS/MS) using a BEH amide column (1.7μ, 2.1×50 mm). Plasma and brain concentrations of (2R,6S)-, (2S,6R)-, (2R,5R)- (2S,5S)-, (2R,5S)-, (2S,5R)-, (2R,4R)-, and (2S,4S)-HNK; and (5R)-methyl-(2R,6R)-HNK were determined by reversed phase UPLC-MS/MS based upon a previously described protocol with several modifications using a BEH C18 column ([…], 2.1×50 mm). See Moaddel et al., Talanta 82:1892-1904 (2010), and Zanos et al., Nature 533:481-486 ([…]), both of which are incorporated by reference herein in their entireties.
The gradient for HILIC UPLC method was: 0-0.2 min 98% B; 0.2-1.4 min 98% to 35% B; 1.4-1.8 min 35% to 10% B, 1.9-2.4 min 98% B. The gradient for BEH Cis UPLC method was: 0-0.2 min 1% B; 0.2-1.4 min 1% to 35% B; 1.4-1.8 min 35% to 98% B, 1.8-2.2 min 98% B, 2.3 min 1% B. The analytical run time of the UPLC methods was 2.5 min. The calibration standards and quality control samples were prepared in blank mouse plasma and brain homogenate. Calibration standards ranged from 5.0-5000 ng/ml. […]

NMDARs = details: read-out: Ki (binding / inhibition of NMDARs); cited from earlier work
[2] = i.p.; earlier study; cited from earlier work
[3] = female mice, i.p. 5 mg/kg, read-out: B:P ratio (brain to plasma AUC ratio)
[4] = male mice, i.p. 5 mg/kg, read-out: B:P ratio (brain to plasma AUC ratio)
[5] = brain, female mice, i.p. 5 mg/kg, read-out: t1/2 Brain (converted)
[6] = brain, male mice, i.p. 5 mg/kg, read-out: t1/2 Brain (converted)
[7] = plasma, female mice, i.p. 5 mg/kg, read-out: t1/2 Plasma (converted)
[8] = plasma, male mice, i.p. 5 mg/kg, read-out: t1/2 Plasma (converted)
[9] = male mice, equivalent systemic doses

Row | Compound | lowest dose reducing forced swim test immobility time (mice) [mg/kg] | Kp [1, 3] | Kp [1, 4] | half-life [1, 5] [min] | half-life [1, 6] [min] | half-life [1, 7] [min] | half-life [1, 8] [min] | Brain Concentration over time, sex-dependent difference ([1]; i.p. 5 mg/kg) | Plasma Concentration over time, sex-dependent difference ([1]; i.p. 5 mg/kg) | Brain Total exposure (AUC), sex-dependent difference ([1]; i.p. 5 mg/kg) | Plasma Total exposure (AUC), sex-dependent difference ([1]; i.p. 5 mg/kg) | Ki (NMDARs) [µM] | lowest dose reducing escape failures in the learned helplessness test [2] [mg/kg] | brain concentration at 4 h post-treatment ([1]; females, but not males, i.p. 5 mg/kg, LLOQ 5.0 ng/ml) | peak and total brain levels, lower compared to equivalent dosing with (2R,6R)-HNK ([1]; male mice) | Cmax and AUC, fold greater than those of (2R,6R)-HNK [1, 9] | peak and total brain levels, fold greater than those of (2R,6R)-HNK [1, 9] | Tmax ([1]; brain, both sexes, i.p. 5 mg/kg, read-out: Tmax in the brain (converted)) [min] | Tmax ([1]; plasma, both sexes, i.p. 5 mg/kg, read-out: Tmax in the plasma (converted)) [min] | Kp ([1]; both sexes, male and female mice, i.p. 5 mg/kg, read-out: brain to plasma AUC (exposure) ratio)
1 | N[C@@]1(c2ccccc2Cl)CCC[C@@H](O)C1=O [(2R,6R)-HNK, (2R,6R)-hydroxynorketamine] | 5 | 1.3 | 1.3 | 36 | 36 | 36 | 36 | F > M at 10, 30 min | F > M at 10, 30 min | F > M | F > M | > 100 | 3 |  |  |  |  |  |  | 
2 | N[C@@]1(c2ccccc2Cl)CCC[C@H](O)C1=O [(2R,6S)-HNK] |  | 0.7 | 0.6 | 24 | 42 |  | 54 | NS | main effect of sex, M > F | M > F | M > F |  |  | below LLOQs | two-fold |  |  |  |  | 
3 | N[C@]1(c2ccccc2Cl)CCC[C@@H](O)C1=O [(2S,6R)-HNK] |  | 1.4 | 1.2 |  |  |  | 42 | main effect of sex, F > M | NS | F > M | F > M |  |  |  | three-fold |  |  |  |  | 
4 | N[C@]1(c2ccccc2Cl)CCC[C@H](O)C1=O [(2S,6S)-HNK, (2S,6S)-hydroxynorketamine] | 25 | 1.2 |  | 42 | 42 |  | 42 | F > M at 10, 30 min | main effect of sex, F > M | F > M | F > M | 7.34 to 21.2 | 75 |  |  | 2-3 fold | 2-3 fold |  |  | 
5 | C[C@@H]1CC[C@@](N)(c2ccccc2Cl)C(=O)[C@@H]1O.Cl [(5R)-methyl-(2R,6R)-HNK, (2R,5R,6R)-2-amino-2-(2-chlorophenyl)-6-hydroxy-5-methylcyclohexan-1-one hydrochloride] |  | 0.4 | 0.4 | 42 | 48 | 48 | 48 | NS | main effect of sex, M > F | M > F | M > F |  |  |  |  |  |  | 10 | 10 | 0.4
